Measurements published in PubChem BioAssay AID2060605 (Molecular Pharmacology Branch, DTP, NCI, 2025).

System: 947758-054-R-J2-PDC spheroid growth, percent test/control
Assay: Anticancer human tumor 947758-054-R-J2-PDC patient-derived colon adenocarcinoma cell line growth inhibition [CLK]
Details: spheroids with HUVEC and MSC; for IC50: curve of first compound; for viability, T/C: stronger effect = lower value
Source text: A high-throughput screen of multi-cell type tumor spheroids was designed to identify active combinations of […] and targeted small molecules. Complex spheroids include a stromal component modeled by human endothelial cells (HUVEC) and fibroblasts modeled by human mesenchymal stem cells (MSCs). The concentration ranges selected for each drug and investigational agent were based upon clinically achievable concentrations if the clinical Cmax of the agent was known.
Compounds. The drugs and investigational agents: cirtuvivint (SM08502; NSC835563), CC-671 (NSC850746), vemurafenib (NSC761431), tapotoclax (NSC804041), sotorasib (NSC818433), adagrasib (NSC831453), MRTX-1133 (NSC836407), BAY2416964 (NSC825713), copanlisib (NSC816437), inavolisib (NSC800729), abemaciclib (NSC768073), osimertinib (NSC779217), entinostat (NSC756642), eltanexor (KPT-8602, NSC794443), venetoclax (NSC766270), ceralasertib (NSC777638), bortezomib (NSC756655), olaparib (NSC753686), talazoparib (NSC767125), alisertib (NSC759677), peposertib (NSC802822), gemcitabine (NSC613327), 5-fluorouracil (NSC19893), SN-38 (NSC673596), oxaliplatin (NSC266046), paclitaxel (NSC125973), and doxorubicin (NSC123127), were obtained from the National Cancer Institute (NCI) Developmental Therapeutics Program Chemical Repository. The FDA-approved anticancer drug set is available from the Developmental Therapeutics Program at https://dtp.cancer.gov/organization/dscb/obtaining/available plates.htm. […] The stock solutions were prepared in dimethyl sulfoxide (DMSO, Sigma-Aldrich, St. Louis, MO, cat. D2650), except for the platinum complexes which were prepared in saline (Quality Biological, Gaithersburg, MD, cat. 114-055-101), at 800-fold the tested concentration and stored at -70 degrees C prior to their use. All drugs and investigational agents were tested over a range starting from a high concentration at or near the clinical Cmax and decreasing in half-log increments. If the clinical Cmax for an agent had not been determined, the highest concentration tested was 10 microM.
Cell Culture. All cells were maintained in an incubator at 37 degrees C and 5% CO2 with 95% humidity. The PDC lines were cultured according to standard operating procedures established by the NCI PDMR. Briefly, all PDCs were thawed and cultured in Matrigel-coated flasks prepared with a working solution of 1X Ham's F-12 nutrient mix, without supplementation (Invitrogen, Waltham, MA, cat. 11765054), 100 U/mL penicillin-streptomycin (Invitrogen, cat. 15140122), and 2.5% Matrigel (Corning Inc., Corning, NY, cat. 354248) for the first three passages. The 947758-054-R-J2-PDC line was cultured in 6B/Colon 1A media, which includes advanced DMEM/F-12 (Thermo Fisher Scientific, cat. 12634028), 10 mM HEPES (Thermo Fisher Scientific, cat. 15630080), 1X GlutaMAX supplement (Thermo Fisher Scientific, cat. 35050061), 0.1 mg/mL primocin (InvivoGen, cat. ant-pm-2), 10% defined fetal bovine serum, heat inactivated (HyClone Laboratories Inc., cat. SH30070.03HI), 1.25 mM N-Acetyl-L-cysteine (Sigma-Aldrich, cat. A9165), 10 mM nicotinamide (Sigma-Aldrich, cat. N0636), 1X B-27 supplement (Thermo Fisher Scientific, cat. 17504044), 1X N-2 supplement (Thermo Fisher Scientific, cat. 17502048), and 10 microM Y-27632 dihydrochloride (Tocris Bioscience, cat. 1254). The 876862-298-R-J1-PDC was cultured in 6E media, which includes all 6B/Colon 1A media components plus 50% L-WRN conditioned media (ATCC, cat. CRL-3276), 50 ng/mL recombinant human EGF recombinant protein (hEGF; Thermo Fisher Scientific, cat. PHG0311), 10 ng/mL recombinant human fibroblast growth factor 10 (hGFG-10; PeproTech, cat. 100-26), 1 ng/mL recombinant human fibroblast growth factor 2 (hFGF-2; PeproTech, cat. 100-18B), and 1 µM prostaglandin E2 (PGE2; Tocris, cat. 2296). The 227483-062-R1-J1-PDC line was cultured in Panc media, containing all 6E components except hFGF-2, with the addition of 500 nM SB-431542 (Selleckchem, cat. S1067) and 10 nM gastrin (Tocris, cat. 3006). […]
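Note: spheroids exposed to compounds for one week before readout.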
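Throughout, for viability, T/C: 100% = DMSO vehicle control wells.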

## C=CC(=O)Nc1cc(Nc2nccc(-c3cn(C)c4ccccc34)n2)c(OC)cc1N(C)CCN(C)C + CNC(=O)c1ccc(Nc2nc(OC3CCCC3)c3c(-c4ccc5nc(C)oc5c4)c[nH]c3n2)c(OC)c1
Second compound 0.0316 µM
  IC50: > 300 nM
Second compound 0.1 µM
  IC50: > 300 nM
Second compound 0.316 µM
  IC50: 251 nM
Second compound 1 µM
  IC50: 122 nM
Second compound 3.16 µM
  IC50: < 0.949 nM
Second compound 10 µM
  IC50: < 0.949 nM
Second compound 0.0316 µM, first compound 0.000949 µM
  viability, T/C: 90%
Second compound 0.0316 µM, first compound 0.003 µM
  viability, T/C: 78.9%
Second compound 0.0316 µM, first compound 0.00949 µM
  viability, T/C: 80.4%
Second compound 0.0316 µM, first compound 0.03 µM
  viability, T/C: 94.6%
Second compound 0.0316 µM, first compound 0.0949 µM
  viability, T/C: 86.2%
Second compound 0.0316 µM, first compound 0.3 µM
  viability, T/C: 64%
Second compound 0.1 µM, first compound 0.000949 µM
  viability, T/C: 102%
Second compound 0.1 µM, first compound 0.003 µM
  viability, T/C: 94.9%
Second compound 0.1 µM, first compound 0.00949 µM
  viability, T/C: 83.7%
Second compound 0.1 µM, first compound 0.03 µM
  viability, T/C: 87.9%
Second compound 0.1 µM, first compound 0.0949 µM
  viability, T/C: 78.1%
Second compound 0.1 µM, first compound 0.3 µM
  viability, T/C: 52.5%
Second compound 0.316 µM, first compound 0.000949 µM
  viability, T/C: 88.2%
Second compound 0.316 µM, first compound 0.003 µM
  viability, T/C: 81.8%
Second compound 0.316 µM, first compound 0.00949 µM
  viability, T/C: 65.8%
Second compound 0.316 µM, first compound 0.03 µM
  viability, T/C: 96.3%
Second compound 0.316 µM, first compound 0.0949 µM
  viability, T/C: 108%
Second compound 0.316 µM, first compound 0.3 µM
  viability, T/C: 43.1%
Second compound 1 µM, first compound 0.000949 µM
  viability, T/C: 70.2%
Second compound 1 µM, first compound 0.003 µM
  viability, T/C: 53.1%
Second compound 1 µM, first compound 0.00949 µM
  viability, T/C: 47.1%
Second compound 1 µM, first compound 0.03 µM
  viability, T/C: 52%
Second compound 1 µM, first compound 0.0949 µM
  viability, T/C: 62.8%
Second compound 1 µM, first compound 0.3 µM
  viability, T/C: 25.4%
Second compound 3.16 µM, first compound 0.000949 µM
  viability, T/C: 48.9%
Second compound 3.16 µM, first compound 0.003 µM
  viability, T/C: 44.4%
Second compound 3.16 µM, first compound 0.00949 µM
  viability, T/C: 44.8%
Second compound 3.16 µM, first compound 0.03 µM
  viability, T/C: 44%
Second compound 3.16 µM, first compound 0.0949 µM
  viability, T/C: 39.5%
Second compound 3.16 µM, first compound 0.3 µM
  viability, T/C: 23.1%
Second compound 10 µM, first compound 0.000949 µM
  viability, T/C: 39.8%
Second compound 10 µM, first compound 0.003 µM
  viability, T/C: 39.5%
Second compound 10 µM, first compound 0.00949 µM
  viability, T/C: 42.7%
Second compound 10 µM, first compound 0.03 µM
  viability, T/C: 35.2%
Second compound 10 µM, first compound 0.0949 µM
  viability, T/C: 20.9%
Second compound 10 µM, first compound 0.3 µM
  viability, T/C: 18.3%
